SMILES strings stand for the structures.

The pKa is the pH at which an ionisable group is half protonated. Low values mean a stronger acid or weaker base, high ones a weaker acid or stronger base. Consider `CNC(=O)c1ccccc1Nc1nc(Nc2ccc(N3CCOCC3)cc2OC)ncc1Cl`, for which the pKa came to 4.27.

`C[NH+](C)CC1CCc2cc(NC(=O)c3ccc(-c4ccc(F)cc4)cc3)ccc2C1` (configuration not stated): the pKa was found to be 9.1.

Regarding `CS(=O)(=O)c1ccc(-c2nc3c(c(=O)[nH]2)COCC3)cc1`, the pKa was determined as 7.31.

Turning to `O=c1[nH]c(-c2ccc(C(F)(F)F)cc2)nc2c1CSCC2`, the pKa is 7.94.

In turn, `Cc1c(-c2ccccc2)c(=O)oc2cc(O)ccc12` displayed a pKa of 7.74.

`COc1ccc(OC)c(S(=O)(=O)N2CCC(CN3CC[NH+](Cc4ccc(F)cc4)CC3)CC2)c1` showed a pKa of 7.32.

In turn, `CC(=O)N1CCC(CNc2nc3c(s2)CCCc2ccc(F)cc2-3)CC1` registered a pKa of 4.31.

The values are drawn from the pKa sets of Baltruschat and Czodrowski (2020).
